In patent publication US9975930B2, “Lantibiotic derivatives and process for their preparation” (NAICONS S.r.l., priority 2012, dated 2018):

Legend:
Assay in all cases: MIC by broth microdilution
[1] = system: Staphylococcus aureus Met-S ATCC6538P; type: cell-based; conditions: code 100; CAMHB broth; 20-24 hours at 35° C.
[2] = system: E. faecalis VanS; type: cell-based; conditions: code 559, CAMHB broth
[3] = system: Candida albicans; type: cell-based; conditions: code 145; RPMI-1640; 48 hours
[4] = system: S. pyogenes; type: cell-based; conditions: code 49; Todd Hewitt broth; 20-24 hours at 35° C.
[5] = system: E. faecium VanA; type: cell-based, Enterococcus faecium; conditions: code 569; CAMHB broth; 20-24 hours at 35° C.
[6] = system: Enterococcus faecium VanS; type: cell-based; conditions: code 568, CAMHB broth
[7] = system: S. aureus ATCC19636; type: cell-based, Staphylococcus aureus; conditions: code 819, CAMHB broth
[8] = system: S. aureus ATCC 25923; type: cell-based, Staphylococcus aureus; conditions: CAMHB broth; 20-24 hours at 35° C.
[9] = system: E. faecalis VanA; type: cell-based; conditions: code 560; CAMHB broth; 20-24 hours at 35° C.
[10] = system: Staphylococcus aureus Met-R; type: cell-based; conditions: code 1400; CAMHB broth; 20-24 hours at 35° C.

Question: How did the “Minimal inhibitory concentration (MIC)” value [1] turn out when `CN[C@H](CC(C)C)C(=O)N[C@H]1C(=O)N[C@@H](CC(N)=O)C(=O)N[C@H]2C(=O)N[C@H]3C(=O)N[C@H](C(=O)N[C@H](C(=O)O)c4cc(O)cc(O)c4-c4cc3ccc4O)[C@H](O)c3ccc(c(Cl)c3)Oc3cc2cc(c3O[C@@H]2O[C@H](CO)[C@@H](O)[C@H](O)[C@H]2O[C@H]2C[C@](C)(N)[C@H](O)[C@H](C)O2)Oc2ccc(cc2Cl)[C@H]1O` [VA, vancomycin] was run?
Answer: The value was 0.25.

Question: What about the “Minimal inhibitory concentration (MIC)” value ([2]; +serum 30% (bovine serum)) of the same compound?
Answer: Its value is 2.

Question: What about the “Minimal inhibitory concentration (MIC)” value ([2]; 20-24 hours at 35° C.) of the same compound?
Answer: The value was 1.

Question: And the “Minimal inhibitory concentration (MIC)” value [3]?
Answer: The value was greater than 128.

Question: And the “Minimal inhibitory concentration (MIC)” value [4]?
Answer: Its value is 0.25.

Question: And the “Minimal inhibitory concentration (MIC)” value [5]?
Answer: The value was greater than 128.

Question: And the “Minimal inhibitory concentration (MIC)” value ([6]; +serum 30% (bovine serum))?
Answer: Its value is 2.

Question: What about the “Minimal inhibitory concentration (MIC)” value ([6]; 20-24 hours at 35° C.) of the same compound?
Answer: Its value is 2.

Question: And the “Minimal inhibitory concentration (MIC)” value ([7]; +serum 30% (bovine serum))?
Answer: The value was 1.

Question: And the “Minimal inhibitory concentration (MIC)” value ([7]; 20-24 hours at 35° C.)?
Answer: Its value is 0.5.

Question: What about the “Minimal inhibitory concentration (MIC)” value [8] of the same compound?
Answer: Its value is 1.

Question: And the “Minimal inhibitory concentration (MIC)” value [9]?
Answer: Its value is 2.

Question: And the “Minimal inhibitory concentration (MIC)” value [10]?
Answer: The value was 0.5.
